Data reported in the supplement of paper PMC13380429.

Assays:
A549-ACE2 [1] = assay: drug-induced phospholipidosis relative to tamoxifen; higher = more phospholipidosis
[2] = test system: A549-ACE2 infected with SARS-CoV-2; assay: cell count relative to DMSO; higher = less toxic; details: 24 h
U2OS [3] = assay: cell viability relative to DMSO; higher = less toxic; details: 72 h
Calu-3 [4] = assay: as above; details: 72 h
Vero E6 [5] = assay: as above; details: 72 h
Caco-2 [6] = assay: as above; details: 72 h
HepG2 [7] = assay: as above; details: 72 h
[8] = test system: A549-ACE2 infected with SARS-CoV-2; assay: SARS-CoV-2 infection rate relative to DMSO; higher = more infection; details: 24 h
U2OS [9] = assay: drug sensitivity score (DSS) for viability; higher = more toxic; extreme values may be limits of the assay; details: 72 h
Calu-3 [10] = assay: as above; details: 72 h
Vero E6 [11] = assay: as above; details: 72 h
Caco-2 [12] = assay: as above; details: 72 h
HepG2 [13] = assay: as above; details: 72 h
U2OS [14] = assay: relative viability EC50 (midpoint between 100% and the lowest measured viability); higher = less toxic; details: 72 h
Calu-3 [15] = assay: as above; details: 72 h
Vero E6 [16] = assay: as above; details: 72 h
Caco-2 [17] = assay: as above; details: 72 h
HepG2 [18] = assay: as above; details: 72 h
[19] = test system: A549-ACE2 infected with SARS-CoV-2; assay: morphology score (similarity to uninfected cells); higher = more like uninfected cells; details: 24 h
A549-ACE2 [20] = assay: phospholipidosis EC50; higher = less potent phospholipidosis inducer

C[C@H]1CCC/C=C/[C@@H]2C[C@H](O)C[C@H]2[C@H](O)/C=C/C(=O)O1 [brefeldin-A]
A549-ACE2 [1], 24 h
Details	drug-induced phospholipidosis [%]
0.3 µM	-4.02
0.833333 µM	-5.26
3.33333 µM	-7.24
10 µM	-7

Details	SARS-CoV-2 infection rate, [8] [%]	cell count, [2] [%]	cell viability, Caco-2 [6] [%]	cell viability, Calu-3 [4] [%]	cell viability, HepG2 [7] [%]	cell viability, U2OS [3] [%]	cell viability, Vero E6 [5] [%]	morphology score, [19]
1 nM	–	–	96.6	108	95.6	99.5	95.3	–
10 nM	–	–	89.7	97.1	96.6	99.3	101	–
0.1 µM	33	108	–	–	–	–	–	0.73
100 nM	–	–	71.9	32.3	21.9	22.8	28.4	–
0.3 µM	42	52	–	–	–	–	–	0.14
1 µM	16	38	–	–	–	–	–	0.32
1000 nM	–	–	26.8	15.4	14.2	0.2	3.5	–
3 µM	30	35	–	–	–	–	–	0.26
10000 nM	–	–	28.8	10.7	14.6	0.1	3.3	–

Details	drug sensitivity score	relative viability EC50 [µM]
Caco-2 [12]	16.3	–
Caco-2 [17]	–	0.13
Calu-3 [10]	24.5	–
Calu-3 [15]	–	0.0555
HepG2 [13]	25.6	–
HepG2 [18]	–	0.0379
U2OS [9]	26.8	–
U2OS [14]	–	0.0612
Vero E6 [11]	25.7	–
Vero E6 [16]	–	0.066

O=S(=O)(c1cccc2cnccc12)N1CCCNCC1 [fasudil]
Details	drug sensitivity score
Caco-2 [12]	0
Calu-3 [10]	0
HepG2 [13]	0.7
U2OS [9]	0
Vero E6 [11]	0

[19]
Details	morphology score
0.3 µM	0.21
3 µM	0.17
10 µM	0.3
30 µM	0.09

CNCCC(Oc1ccc(C(F)(F)F)cc1)c1ccccc1 (configuration not stated) [fluoxetine]
Details	morphology score, 0.3 µM	morphology score, 3 µM	morphology score, 10 µM	morphology score, 30 µM	phospholipidosis EC50, 24 h [µM]	phospholipidosis EC50, 48 h [µM]	phospholipidosis EC50, 72 h [µM]
A549-ACE2 [20]	–	–	–	–	7.05	7.62	7.61
[19]	0.06	0.65	0.87	0.74	–	–	–

Details	drug sensitivity score
Calu-3 [10]	0.3
HepG2 [13]	1.6
U2OS [9]	0
Vero E6 [11]	0.2

CN1CCN(C2CCN(C(=O)Nc3cc(Oc4ccc(NC(=O)C5(C(=O)Nc6ccc(F)cc6)CC5)c(F)c4)ccn3)CC2)CC1 [golvatinib]
drug-induced phospholipidosis [%], A549-ACE2 [1]
Details	0.3 µM	0.833333 µM	3.33333 µM	6.66667 µM	10 µM	30 µM
24 h	1.8	1.61	20.9	69	79.8	76.4
48 h	3.53	3.1	11.1	42.2	75.9	–
72 h	5.78	3.08	10.8	36.2	67.2	–

Details	SARS-CoV-2 infection rate [%]	cell count [%]	cell viability [%]	morphology score	phospholipidosis EC50 [µM]
A549-ACE2 [20], 24 h	–	–	–	–	4.22
A549-ACE2 [20], 48 h	–	–	–	–	9.68
A549-ACE2 [20], 72 h	–	–	–	–	11.3
Caco-2 [6], 1 nM	–	–	102	–	–
Caco-2 [6], 10 nM	–	–	89.1	–	–
Caco-2 [6], 100 nM	–	–	95	–	–
Caco-2 [6], 1000 nM	–	–	87.9	–	–
Caco-2 [6], 10000 nM	–	–	44.2	–	–
Calu-3 [4], 1 nM	–	–	92.4	–	–
Calu-3 [4], 10 nM	–	–	105	–	–
Calu-3 [4], 100 nM	–	–	97.1	–	–
Calu-3 [4], 1000 nM	–	–	106	–	–
Calu-3 [4], 10000 nM	–	–	63.4	–	–
HepG2 [7], 1 nM	–	–	97.8	–	–
HepG2 [7], 10 nM	–	–	95.5	–	–
HepG2 [7], 100 nM	–	–	102	–	–
HepG2 [7], 1000 nM	–	–	77.6	–	–
HepG2 [7], 10000 nM	–	–	1.4	–	–
U2OS [3], 1 nM	–	–	96.7	–	–
U2OS [3], 10 nM	–	–	102	–	–
U2OS [3], 100 nM	–	–	97.6	–	–
U2OS [3], 1000 nM	–	–	104	–	–
U2OS [3], 10000 nM	–	–	61.2	–	–
Vero E6 [5], 1 nM	–	–	95.3	–	–
Vero E6 [5], 10 nM	–	–	97.5	–	–
Vero E6 [5], 100 nM	–	–	95	–	–
Vero E6 [5], 1000 nM	–	–	91.3	–	–
Vero E6 [5], 10000 nM	–	–	59.6	–	–
[2], 0.1 µM	–	94	–	–	–
[2], 0.3 µM	–	101	–	–	–
[2], 1 µM	–	103	–	–	–
[2], 3 µM	–	110	–	–	–
[8], 0.1 µM	107	–	–	–	–
[8], 0.3 µM	104	–	–	–	–
[8], 1 µM	95	–	–	–	–
[8], 3 µM	50	–	–	–	–
[19], 0.1 µM	–	–	–	-0.16	–
[19], 0.3 µM	–	–	–	-0.14	–
[19], 1 µM	–	–	–	0.12	–
[19], 3 µM	–	–	–	0.64	–

Details	drug sensitivity score	relative viability EC50 [µM]
Caco-2 [12]	5	–
Caco-2 [17]	–	1.66
Calu-3 [10]	1.4	–
HepG2 [13]	9	–
HepG2 [18]	–	1.63
U2OS [9]	1.6	–
Vero E6 [11]	3.4	–

COc1ccc2c(C)nc(Nc3nc(C)c(C)c(O)n3)nc2c1 [madrasin]
drug-induced phospholipidosis [%], A549-ACE2 [1]
Details	0.3 µM	0.833333 µM	3.33333 µM	6.66667 µM	10 µM	30 µM
24 h	2.49	-0.05	-3.35	-1.32	1.34	56
48 h	3.81	-2.33	-1.09	0.46	1.75	–
72 h	0.061	-7.49	0.0944	-0.243	1.1	–

Details	SARS-CoV-2 infection rate, [8] [%]	cell count, [2] [%]	cell viability, Caco-2 [6] [%]	cell viability, Calu-3 [4] [%]	cell viability, HepG2 [7] [%]	cell viability, U2OS [3] [%]	cell viability, Vero E6 [5] [%]	morphology score, [19]
1 nM	–	–	105	94.7	89.9	98.6	82.8	–
10 nM	–	–	99.2	84	95.4	98.1	99.1	–
100 nM	–	–	119	97	90.9	102	91	–
0.3 µM	90	102	–	–	–	–	–	0.29
1000 nM	–	–	101	108	92.7	98.8	98.1	–
3 µM	88	105	–	–	–	–	–	0.36
10 µM	96	102	–	–	–	–	–	0.21
10000 nM	–	–	98.3	94.6	93.5	97	111	–
30 µM	1	95	–	–	–	–	–	0.75

Details	drug sensitivity score	relative viability EC50 [µM]
Caco-2 [12]	0	–
Caco-2 [17]	–	> 10
Calu-3 [10]	0	–
Calu-3 [15]	–	> 10
HepG2 [13]	0	–
HepG2 [18]	–	> 10
U2OS [9]	0	–
U2OS [14]	–	> 10
Vero E6 [11]	0	–
Vero E6 [16]	–	> 10

CCOc1cc(OCC)c(C(=O)CCC(=O)O)cc1OCC [trepibutone]
cell viability [%]
Details	Caco-2 [6]	Calu-3 [4]	HepG2 [7]	U2OS [3]	Vero E6 [5]
1 nM	98.6	108	100	101	94.5
10 nM	98.4	105	96.9	94.3	105
100 nM	102	107	104	94.5	99.8
1000 nM	101	102	98.1	100	97.3
10000 nM	96.7	99.8	99.9	96.6	92.7

Details	drug sensitivity score	relative viability EC50 [µM]
Caco-2 [12]	0	–
Caco-2 [17]	–	> 10
Calu-3 [10]	0	–
Calu-3 [15]	–	> 10
HepG2 [13]	0	–
HepG2 [18]	–	> 10
U2OS [9]	0	–
U2OS [14]	–	> 10
Vero E6 [11]	0	–
Vero E6 [16]	–	> 10
